System: 699152-130-R-J1-PDC complex spheroid viability
Assay: Anticancer human tumor 699152-130-R-J1-PDC patient-derived pancreatic carcinoma cell line growth inhibition [POLQ]
Details: for IC50: curve of first compound; for viability, T/C: stronger effect = lower value
Experimental: Multicellular complex tumor spheroid response to Polymerase (POL) inhibitors (novobiocin, ART-558, RP6685) in combination with a variety of drugs and investigational agents in selected tumor cell lines
The POL inhibitors (novobiocin, ART-558, and RP6685) were evaluated both individually and in combination with standard of care and investigational anticancer small molecules within a complex spheroid model of solid tumors. . Complex spheroids include a stromal component modeled by human endothelial cells (HUVEC) and fibroblasts modeled by human mesenchymal stem cells (MSCs). The concentration ranges selected for each drug and investigational agent were based upon clinically achievable concentrations if the clinical Cmax of the agent was known.
Compounds. The drugs and investigational agents: novobiocin (NSC847541), ART-558 (NSC835418), RP-6685 (NSC848927), peposertib (NSC802822), ceralasertib (NSC780249), elimusertib (NSC800525), camonsertib (NSC841442), AZD-1390 (NSC803789), olaparib (NSC753686), talazoparib (NSC767125), rucaparib (NSC756644), sotorasib (NSC818433), MRTX-1133 (NSC836407), SN-38 (NSC673596), topotecan (NSC609699), epotoside (NSC141540), doxorubicin (NSC123127), gemcitabine (NSC613327), 5-fluorouracil (NSC19893), paclitaxel (NSC125973), vemurafenib (NSC761431), MSA-2 (NSC828583), SN-011 (NSC837082), adavosertib (NSC754352), prexasertib (NSC758257), carboplatin (NSC241240) and oxaliplatin (NSC266046), were obtained from the National Cancer Institute (NCI) Developmental Therapeutics Program Chemical Repository (21). The FDA-approved anticancer drug set is available from the Developmental Therapeutics Program at https://dtp.cancer.gov/organization/dscb/obtaining/. […] The stock solutions were prepared in dimethyl sulfoxide (DMSO, Sigma-Aldrich, St. Louis, MO, cat. D2650), except for the platinum compounds which were prepared in saline (Quality Biological, Gaithersburg, MD, cat. 114-055-101), at 800-fold the tested concentration and stored at -70 degrees C prior to their use. All drugs and investigational agents were tested over a range starting from a high concentration at or near the clinical Cmax and decreasing in half-log increments. If the clinical Cmax for an agent had not been determined, the highest concentration tested was 10 microM, except for SN-38, which was tested at a high concentration of 1 microM.
Cell Culture. All cells were maintained in an incubator at 37 degrees C and 5% CO2 with 95% humidity. The PDC lines were cultured according to standard operating procedures established by the NCI PDMR (https://pdmr.cancer.gov). Table 3 of the manuscript, lists the cell lines along with the number of the three cell types plated to form the mct-spheroids and media for tumor cell growth. After thawing, all PDC lines, except 997537-175-T-J1-PDC and 415267-285-R-J2-PDC, were cultured in Matrigel-coated flasks prepared with a working solution of 1X Ham's F-12 nutrient mix, without supplementation (Thermo Fisher Scientific, cat. 11765054), 100 U/mL penicillin-streptomycin (Thermo Fisher Scientific, cat. 15140122), and 2.5% Matrigel (Corning Inc., Corning, NY, cat. 354248) for the first three passages. The two PDC lines 997537-175-T-J1-PDC and 415267-285-R-J2-PDC were cultured on uncoated flasks. The 857933-349-R-J2-PDC line was cultured in 6C/Colon 1B media containing advanced DMEM/F-12 (Thermo Fisher Scientific, cat. 12634028), 10 mM HEPES (Thermo Fisher Scientific, cat. 15630080), 1X GlutaMAX supplement (Thermo Fisher Scientific, cat. 35050061), 0.1 mg/mL primocin (InvivoGen, San Diego, CA, cat. ant-pm-2), 10% defined fetal bovine serum, heat inactivated (HyClone Laboratories Inc., Logan, UT, cat. SH30070.03HI), 50% L-WRN conditioned media (ATCC, cat. CRL-3276), 1.25 mM N-Acetyl-L-cysteine (Sigma-Aldrich, cat. A9165), 10 mM nicotinamide (Sigma-Aldrich, cat. N0636), 1X B-27 supplement (Thermo Fisher Scientific, cat. 17504044), 1X N-2 supplement (Thermo Fisher Scientific, cat. […]

[1] = second compound 0.0316 µM, first compound 0.0316 µM
[2] = second compound 0.0316 µM, first compound 0.1 µM
[3] = second compound 0.1 µM, first compound 0.0316 µM
[4] = second compound 0.1 µM, first compound 0.1 µM
[5] = second compound 0.316 µM, first compound 0.0316 µM
[6] = second compound 0.316 µM, first compound 0.1 µM
[7] = second compound 1 µM, first compound 0.0316 µM
[8] = second compound 1 µM, first compound 0.1 µM
[9] = second compound 3.16 µM, first compound 0.0316 µM
[10] = second compound 3.16 µM, first compound 0.1 µM
[11] = second compound 10 µM, first compound 0.0316 µM
[12] = second compound 10 µM, first compound 0.1 µM
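Further: spheroids exposed to agents for 7 days before viability reading.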
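Wherever viability, T/C is given: percent of DMSO vehicle control viability so 100% = vehicle and 0% = no viable signal.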

O=C(Nc1ccc(O)c(NS(=O)(=O)c2ccc(F)cc2)c1)c1ccc(-c2ccccc2)cc1 + Cc1cccc(N(C)C(=O)C2C(O)CCN2c2nc(C)cc(C(F)(F)F)c2C#N)c1
IC50 (second compound 0.0316 µM): > 10000 nM | IC50 (second compound 0.1 µM): > 10000 nM | IC50 (second compound 0.316 µM): > 10000 nM | IC50 (second compound 1 µM): > 10000 nM | IC50 (second compound 3.16 µM): > 10000 nM | IC50 (second compound 10 µM): > 10000 nM | viability, T/C [1]: 107% | viability, T/C [2]: 91.1% | viability, T/C (second compound 0.0316 µM, first compound 0.316 µM): 95.9% | viability, T/C (second compound 0.0316 µM, first compound 1 µM): 102% | viability, T/C (second compound 0.0316 µM, first compound 3.16 µM): 108% | viability, T/C (second compound 0.0316 µM, first compound 10 µM): 78% | viability, T/C [3]: 110% | viability, T/C [4]: 103% | viability, T/C (second compound 0.1 µM, first compound 0.316 µM): 100% | viability, T/C (second compound 0.1 µM, first compound 1 µM): 106% | viability, T/C (second compound 0.1 µM, first compound 3.16 µM): 101% | viability, T/C (second compound 0.1 µM, first compound 10 µM): 78.7% | viability, T/C [5]: 111% | viability, T/C [6]: 104% | viability, T/C (second compound 0.316 µM, first compound 0.316 µM): 114% | viability, T/C (second compound 0.316 µM, first compound 1 µM): 105% | viability, T/C (second compound 0.316 µM, first compound 3.16 µM): 98.4% | viability, T/C (second compound 0.316 µM, first compound 10 µM): 69.3% | viability, T/C [7]: 103% | viability, T/C [8]: 110% | viability, T/C (second compound 1 µM, first compound 0.316 µM): 111% | viability, T/C (second compound 1 µM, first compound 1 µM): 97% | viability, T/C (second compound 1 µM, first compound 3.16 µM): 107% | viability, T/C (second compound 1 µM, first compound 10 µM): 83.3% | viability, T/C [9]: 107% | viability, T/C [10]: 112% | viability, T/C (second compound 3.16 µM, first compound 0.316 µM): 111% | viability, T/C (second compound 3.16 µM, first compound 1 µM): 102% | viability, T/C (second compound 3.16 µM, first compound 3.16 µM): 114% | viability, T/C (second compound 3.16 µM, first compound 10 µM): 81.2% | viability, T/C [11]: 89.1% | viability, T/C [12]: 96% | viability, T/C (second compound 10 µM, first compound 0.316 µM): 103% | viability, T/C (second compound 10 µM, first compound 1 µM): 95.1% | viability, T/C (second compound 10 µM, first compound 3.16 µM): 97% | viability, T/C (second compound 10 µM, first compound 10 µM): 63.7%

CC[C@@]1(O)C(=O)OCc2c1cc1n(c2=O)Cc2cc3c(CN(C)C)c(O)ccc3nc2-1 + COC1C(OC(N)=O)C(O)C(Oc2ccc3c(O)c(NC(=O)c4ccc(O)c(CC=C(C)C)c4)c(=O)oc3c2C)OC1(C)C
IC50 (second compound 0.0316 µM): > 100 nM | IC50 (second compound 0.1 µM): > 100 nM | IC50 (second compound 0.316 µM): > 100 nM | IC50 (second compound 1 µM): 95 nM | IC50 (second compound 3.16 µM): > 100 nM | IC50 (second compound 10 µM): > 100 nM | viability, T/C (second compound 0.0316 µM, first compound 0.000316 µM): 116% | viability, T/C (second compound 0.0316 µM, first compound 0.001 µM): 101% | viability, T/C (second compound 0.0316 µM, first compound 0.00316 µM): 99.3% | viability, T/C (second compound 0.0316 µM, first compound 0.01 µM): 93.1% | viability, T/C [1]: 79.6% | viability, T/C [2]: 48.4% | viability, T/C (second compound 0.1 µM, first compound 0.000316 µM): 111% | viability, T/C (second compound 0.1 µM, first compound 0.001 µM): 99.6% | viability, T/C (second compound 0.1 µM, first compound 0.00316 µM): 90.4% | viability, T/C (second compound 0.1 µM, first compound 0.01 µM): 93.2% | viability, T/C [3]: 69% | viability, T/C [4]: 60.2% | viability, T/C (second compound 0.316 µM, first compound 0.000316 µM): 112% | viability, T/C (second compound 0.316 µM, first compound 0.001 µM): 94.3% | viability, T/C (second compound 0.316 µM, first compound 0.00316 µM): 84.9% | viability, T/C (second compound 0.316 µM, first compound 0.01 µM): 94% | viability, T/C [5]: 77.9% | viability, T/C [6]: 61.6% | viability, T/C (second compound 1 µM, first compound 0.000316 µM): 97.5% | viability, T/C (second compound 1 µM, first compound 0.001 µM): 92.8% | viability, T/C (second compound 1 µM, first compound 0.00316 µM): 99% | viability, T/C (second compound 1 µM, first compound 0.01 µM): 92.2% | viability, T/C [7]: 83.2% | viability, T/C [8]: 48.3% | viability, T/C (second compound 3.16 µM, first compound 0.000316 µM): 92.5% | viability, T/C (second compound 3.16 µM, first compound 0.001 µM): 106% | viability, T/C (second compound 3.16 µM, first compound 0.00316 µM): 83% | viability, T/C (second compound 3.16 µM, first compound 0.01 µM): 96.4% | viability, T/C [9]: 80% | viability, T/C [10]: 58% | viability, T/C (second compound 10 µM, first compound 0.000316 µM): 103% | viability, T/C (second compound 10 µM, first compound 0.001 µM): 89.4% | viability, T/C (second compound 10 µM, first compound 0.00316 µM): 98.8% | viability, T/C (second compound 10 µM, first compound 0.01 µM): 95.4% | viability, T/C [11]: 69.7% | viability, T/C [12]: 60.9%

From PubChem BioAssay AID1963835 (Molecular Pharmacology Branch, DTP, NCI, 2024)
